From ChEMBL document CHEMBL3091417, “Substituted phenyl as a steroid A-ring mimetic: providing agonist activity to a class of arylsulfonamide nonsteroidal glucocorticoid ligands” (Bioorg Med Chem Lett, 2013)
Calls of active or inactive are those of the source. No cut-off for these calls is given here.

Key:
Glucocorticoid receptor [1] = biological target: T1, Glucocorticoid receptor (Homo sapiens, UniProt P04150); experiment: Agonist activity at glucocorticoid receptor in human foreskin fibroblasts assessed as IL-1-mediated IL-6 synthesis after 24 hrs
T1 sequence (P04150 whole entry): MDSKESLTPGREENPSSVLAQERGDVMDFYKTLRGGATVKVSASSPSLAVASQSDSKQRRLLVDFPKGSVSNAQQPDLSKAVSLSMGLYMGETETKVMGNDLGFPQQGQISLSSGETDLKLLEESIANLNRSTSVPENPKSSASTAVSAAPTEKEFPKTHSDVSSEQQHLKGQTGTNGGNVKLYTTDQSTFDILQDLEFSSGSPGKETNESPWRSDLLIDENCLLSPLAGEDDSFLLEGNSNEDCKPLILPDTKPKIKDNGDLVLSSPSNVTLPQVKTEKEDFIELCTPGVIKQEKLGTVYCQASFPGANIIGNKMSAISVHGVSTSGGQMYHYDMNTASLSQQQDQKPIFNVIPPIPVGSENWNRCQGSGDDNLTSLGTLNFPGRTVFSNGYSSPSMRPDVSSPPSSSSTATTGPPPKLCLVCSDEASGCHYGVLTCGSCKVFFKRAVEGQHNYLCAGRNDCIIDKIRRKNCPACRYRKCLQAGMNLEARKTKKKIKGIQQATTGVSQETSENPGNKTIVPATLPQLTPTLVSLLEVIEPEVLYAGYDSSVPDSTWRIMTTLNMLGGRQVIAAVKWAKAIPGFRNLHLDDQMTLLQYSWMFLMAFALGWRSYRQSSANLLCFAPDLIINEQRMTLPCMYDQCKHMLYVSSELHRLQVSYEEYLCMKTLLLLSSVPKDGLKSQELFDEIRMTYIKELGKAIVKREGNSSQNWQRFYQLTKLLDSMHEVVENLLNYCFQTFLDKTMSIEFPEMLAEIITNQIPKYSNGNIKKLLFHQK

[2] = biological target: T2, Mineralocorticoid receptor (Homo sapiens, UniProt P08235); experiment: Inhibition of mineralocorticoid receptor (unknown origin) expressed in baculovirus-infected insect cells by fluorescence polarization assay
T2 sequence (P08235 whole entry): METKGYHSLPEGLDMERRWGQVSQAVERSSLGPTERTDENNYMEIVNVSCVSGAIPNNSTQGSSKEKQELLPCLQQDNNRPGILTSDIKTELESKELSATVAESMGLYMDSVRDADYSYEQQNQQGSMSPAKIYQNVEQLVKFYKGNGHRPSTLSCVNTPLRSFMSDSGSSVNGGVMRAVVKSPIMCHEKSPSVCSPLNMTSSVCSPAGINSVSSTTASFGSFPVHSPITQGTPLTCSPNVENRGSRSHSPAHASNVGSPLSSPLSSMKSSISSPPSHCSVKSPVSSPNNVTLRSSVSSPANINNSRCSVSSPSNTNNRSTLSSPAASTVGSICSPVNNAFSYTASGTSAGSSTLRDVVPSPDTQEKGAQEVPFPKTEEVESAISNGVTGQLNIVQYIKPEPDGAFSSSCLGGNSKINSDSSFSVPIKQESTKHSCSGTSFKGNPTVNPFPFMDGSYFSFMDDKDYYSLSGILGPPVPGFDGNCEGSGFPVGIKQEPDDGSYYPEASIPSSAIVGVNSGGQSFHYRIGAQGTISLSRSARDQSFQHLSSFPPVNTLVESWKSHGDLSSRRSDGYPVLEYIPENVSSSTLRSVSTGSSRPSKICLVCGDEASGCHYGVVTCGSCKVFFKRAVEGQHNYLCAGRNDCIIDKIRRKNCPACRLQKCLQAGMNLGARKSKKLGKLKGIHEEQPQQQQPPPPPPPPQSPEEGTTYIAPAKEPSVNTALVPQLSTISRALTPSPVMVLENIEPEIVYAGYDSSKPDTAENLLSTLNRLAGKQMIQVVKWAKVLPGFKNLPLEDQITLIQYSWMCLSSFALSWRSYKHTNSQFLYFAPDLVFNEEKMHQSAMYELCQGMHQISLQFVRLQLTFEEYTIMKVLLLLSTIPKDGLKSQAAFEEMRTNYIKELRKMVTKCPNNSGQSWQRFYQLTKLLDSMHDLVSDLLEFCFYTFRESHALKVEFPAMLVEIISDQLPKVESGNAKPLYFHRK

Glucocorticoid receptor [3] = biological target: T1, Glucocorticoid receptor; experiment: Inhibition of glucocorticoid receptor (unknown origin) expressed in baculovirus-infected insect cells by fluorescence polarization assay
Progesterone receptor = biological target: T3, Progesterone receptor (Homo sapiens, UniProt P06401); experiment: Inhibition of progesterone receptor (unknown origin) expressed in baculovirus-infected insect cells by fluorescence polarization assay
T3 sequence (P06401 whole entry): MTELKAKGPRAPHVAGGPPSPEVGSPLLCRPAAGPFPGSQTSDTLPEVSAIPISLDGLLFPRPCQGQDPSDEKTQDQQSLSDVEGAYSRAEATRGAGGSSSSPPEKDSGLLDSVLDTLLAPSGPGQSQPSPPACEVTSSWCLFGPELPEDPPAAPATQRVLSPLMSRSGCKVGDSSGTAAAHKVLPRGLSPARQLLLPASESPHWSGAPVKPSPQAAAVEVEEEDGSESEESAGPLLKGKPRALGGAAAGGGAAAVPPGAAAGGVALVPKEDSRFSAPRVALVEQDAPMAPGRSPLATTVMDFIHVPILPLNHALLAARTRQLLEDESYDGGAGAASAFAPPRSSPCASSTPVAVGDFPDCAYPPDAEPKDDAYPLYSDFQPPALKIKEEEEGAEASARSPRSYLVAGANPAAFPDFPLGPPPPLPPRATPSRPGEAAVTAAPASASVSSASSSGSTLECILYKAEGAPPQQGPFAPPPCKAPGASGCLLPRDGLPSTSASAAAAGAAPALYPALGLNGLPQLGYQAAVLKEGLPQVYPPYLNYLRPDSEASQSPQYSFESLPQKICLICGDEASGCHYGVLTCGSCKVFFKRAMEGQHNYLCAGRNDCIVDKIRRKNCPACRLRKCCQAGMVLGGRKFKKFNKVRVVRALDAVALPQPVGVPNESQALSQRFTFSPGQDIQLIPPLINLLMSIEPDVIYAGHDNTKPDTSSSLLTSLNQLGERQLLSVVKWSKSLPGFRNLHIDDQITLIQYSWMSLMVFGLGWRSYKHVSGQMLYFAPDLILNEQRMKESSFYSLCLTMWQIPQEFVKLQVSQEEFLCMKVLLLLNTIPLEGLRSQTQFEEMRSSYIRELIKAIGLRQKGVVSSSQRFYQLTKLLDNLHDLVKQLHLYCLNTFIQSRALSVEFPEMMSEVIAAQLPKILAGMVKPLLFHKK

[4] = biological target: T4, Glucocorticoid receptor (Homo sapiens) (UniProt P04150); experiment: Agonist activity at glucocorticoid receptor in human foreskin fibroblasts assessed as IL-1-mediated IL-6 synthesis at […] after 24 hrs relative to dexamethasone
T4 sequence (whole entry): T1 sequence (P04150 whole entry)

[5] = biological target: T4, Glucocorticoid receptor (Homo sapiens); experiment: Inhibition of glucocorticoid receptor (unknown origin) expressed in baculovirus-infected insect cells up to 10 uM by fluorescence polarization assay

Row | IC50 (Glucocorticoid receptor [1]) [nM] | IC50 [2] [nM] | IC50 (Glucocorticoid receptor [3]) [nM] | IC50 (Progesterone receptor) [nM] | Emax [4] [%] | inhibition [5] | SMILES
1 | > 10000 | 190 | 10 | 1500 | 0 |  | CCC(Cc1cccc2ccccc12)NS(=O)(=O)c1c(C)cc(C)cc1C (stereo unspecified)
2 | > 10000 | 400 | 78 | 720 | 0 |  | CCC(Cc1ccc2ccccc2c1)NS(=O)(=O)c1c(C)cc(C)cc1C (stereo unspecified)
3 | > 10000 | 360 | 11 | 7400 | 36 |  | CCC(Cc1cc(C)cc(C)c1)NS(=O)(=O)c1c(C)cc(C)cc1C (stereo unspecified)
4 | > 10000 | 320 | 25 | > 10000 | 0 |  | CCC(Cc1cc(C)ccc1C)NS(=O)(=O)c1c(C)cc(C)cc1C (stereo unspecified)
5 | 23 | 110 | 3 | 210 | 80 |  | CCC(Cc1ccc(O)c2ccccc12)NS(=O)(=O)c1c(C)cc(C)cc1C (stereo unspecified)
6 | 22 | 270 | 2 | 620 | 77 |  | CC[C@@H](Cc1ccc(O)c(C)c1C)NS(=O)(=O)c1c(C)cc(C)cc1C
7 | > 2000 | 1400 | 250 | > 10000 | 0 |  | CCC(Cc1cc(C)c(OC)c(C)c1)NS(=O)(=O)c1c(C)cc(C)cc1C (stereo unspecified)
8 | 89 | 480 | 12 | 3500 | 58 |  | CCC(Cc1cc(C)c(O)c(C)c1)NS(=O)(=O)c1c(C)cc(C)cc1C (stereo unspecified)
9 | > 10000 | 400 | 48 | 3400 | 0 |  | CCC(Cc1cc(F)cc(F)c1)NS(=O)(=O)c1c(C)cc(C)cc1C (stereo unspecified)
10 | > 2000 | 2300 | 23 | 2500 | 0 |  | CC[C@@H](Cc1ccc(O)c(C)c1)NS(=O)(=O)c1c(C)cc(C)cc1C
11 | 15 | 240 | 5 | 860 | 81 |  | CCC(Cc1ccc(O)c(C)c1C)NS(=O)(=O)c1c(C)cc(C)cc1C (racemic)
12 |  |  |  |  |  | inactive | Cc1cc(C)c(S(=O)(=O)NC(C)Cc2ccccc2)c(C)c1 (stereo unspecified)
13 | > 2000 | 1000 | 27 | 2800 | 0 |  | CC[C@@H](Cc1ccc(O)cc1C)NS(=O)(=O)c1c(C)cc(C)cc1C
14 | > 10000 | 700 | 83 | 4200 | 0 |  | CCC(Cc1ccccc1C)NS(=O)(=O)c1c(C)cc(C)cc1C (stereo unspecified)
15 | > 10000 | 150 | 10 | 1200 | 0 |  | CCC(Cc1cc(Cl)cc(Cl)c1)NS(=O)(=O)c1c(C)cc(C)cc1C (stereo unspecified)
16 | > 10000 | > 10000 | 110 | > 10000 | 0 |  | CCC(Cc1c(C)cccc1C)NS(=O)(=O)c1c(C)cc(C)cc1C (stereo unspecified)
17 | > 10000 | 350 | 10 | 2000 | 19 |  | CCC(Cc1cccc(C)c1C)NS(=O)(=O)c1c(C)cc(C)cc1C (stereo unspecified)
18 | > 2000 | 5200 | 120 | 6400 | 0 |  | CC[C@@H](Cc1ccc(O)cc1)NS(=O)(=O)c1c(C)cc(C)cc1C

Row | SMILES | IC50 (Glucocorticoid receptor [1]) [nM] | IC50 [2] [nM] | IC50 (Glucocorticoid receptor [3]) [nM] | IC50 (Progesterone receptor) [nM] | Emax [4] [%] | inhibition [5]
19 | CCC(Cc1cccc(C)c1)NS(=O)(=O)c1c(C)cc(C)cc1C (stereo unspecified) | > 10000 | 400 | 23 | 5500 | 0 | 
20 | CCC(Cc1ccc(C)cc1C)NS(=O)(=O)c1c(C)cc(C)cc1C (stereo unspecified) | > 10000 | 2400 | 160 | 8200 | 0 | 
21 | CCC(Cc1ccc(C)cc1)NS(=O)(=O)c1c(C)cc(C)cc1C (stereo unspecified) | > 10000 | 1100 | 230 | 3400 | 0 | 
22 | CCC(Cc1ccc(OC)c(C)c1C)NS(=O)(=O)c1c(C)cc(C)cc1C (stereo unspecified) | > 2000 | 330 | 62 | 2100 | 0 | 
